The source of these data is paper PMC6332339, “Synthesis, Characterization, and Anti-Cancer Activity of Some New N′-(2-Oxoindolin-3-ylidene)-2-propylpentane hydrazide-hydrazones Derivatives” (Molecules, 2015).

Series [1] concerns HepG2 human liver cancer cell line. As to the kind of experiment: MTT cytotoxicity assay in HepG2 cells. In kind it is cell-based. To be noted: 24 h treatment, mean ± SD; for IC50: Homo sapiens. How it is done:
(§1) The cyto-toxicity activity was measured in vitro in HepG2, Jurkat, and HEK 293 cells using the MTT […] colorimetric assay. For comparison, 5-Fluorouracil (5-FU) was used as a standard anti-cancer drug. Treatment with dimethylsulfoxide (DMSO) was used as a control for the cancer cells.
(§2) The stock concentration of the entire compound in DMSO was 10 mM and this concentration was used to prepare the working dilution. The final DMSO concentration used in the experiments was ≤0.5% as the working concentration. Human liver cancer cell lines (HepG2), human leukemia cell line (Jurkat), and human embryonic kidney cell line (HEK293) cells were cultured in high glucose Dulbecco’s Modified Eagle Medium (DMEM: Life technologies cat #11995073) supplemented with 10% Fetal bovine serum (FBS: Life technologies cat #16000044) in a humidified incubator with 5% CO2 at 37 °C. Around 2 ×10^3 cells were seeded in each well of a 24-well cell culture plate and were allowed to adhere and grow for 24 h. The Jurkat cells grow in suspension so they were cultured and allowed to grow overnight before the addition of compounds. The compounds in serial dilutions (1, 3, 15, 45, 100, and 300 μM) were added after 24 h of culture and the cells were cultured for another 24 h at 37 °C. The cell viability was determined in each experiment using MTT 1-(4,5-dimethylthiazol-2-yl)-3,5-diphenylformazan colorimetric assay. Briefly, the treated or untreated cells were trypsenized and centrifuged, and the resulting pellet was re-suspended in 100 μL of DMEM serum-free medium and incubated at 37 °C for 2 h. After incubation, 20 μL of MTT solution (5 mg/mL in PBS: Sigma Aldrich cat #M2003) was added to each well and further incubated for 2 h. The plate was centrifuged at […] for 10 min then the medium was removed from each well and 2-propanol containing 0.04 M HCl was added to dissolve the formazan produced in the cells. The optical density of the formazan product in solution was measured with a microplate reader at 540 nm. The experiment was conducted in triplicate. Data were calculated as percent of cell viability by the following formula:
(§3) % cell viability = (Mean absorbance in test wells/Mean absorbance in control wells) × 100 (1)
(§4) The IC50 values were calculated from the means of six different concentrations by Bio Data Fit 1.02 using the software Bio Tool Kit (Version 300; Chang Bioscience Inc., Castro Valley, CA, USA) and online program http://ic50.tk/index.html.
(In general: Tetrazolium assays rely on reduction of a dye to a coloured formazan, in cell work by metabolically active cells.)

Series [2] relates to Jurkat human leukaemia cell line. The series is described as follows: MTT cytotoxicity assay in Jurkat cells. In kind it is cell-based. The conditions noted are these: 24 h treatment, mean ± SD. How it is done:
as §1, §2, §3, §4

Series [3] has as its system HEK293 human embryonic kidney cell line. As to the kind of experiment: MTT cytotoxicity assay in normal HEK293 cells. The series is classed as cell-based. To be noted: 24 h treatment, mean ± SD; for IC50: Homo sapiens. How it is done:
as §1, §2, §3, §4

Series [4] deals with human tumour cell lines (HepG2 and Jurkat). The series is described as follows: MTT assay, summary over the tested human tumour cell lines. In kind it is cell-based. To be noted: summary over HepG2 and Jurkat cells. The procedure: as §1, §2, §3, §4

“Also recorded” adds a separate entry of the source. A value given as a limit tells only on which side of the number the result lay.

Take `CCCC(CCC)C(=O)O` [Compound 1, Valproic acid, reference compound]: the “IC50 (μM) HepG2” value in series [1] is given as “did not show promising anti-cancer activity”. In addition, the IC50 in series [1] was 69.7 ± 40.8 µM; in series [2] (Homo sapiens, Jurkat, 24 h), 79.4 ± 40.7 µM; in series [3], 63 ± 38.2 µM.

In the case of `CCCC(CCC)C(=O)NN` [Compound 2, Valproic Hydrazide], the “IC50 (μM) HepG2” value in series [1] is given as “did not show promising anti-cancer activity”. Further, the IC50 in series [1] is 68.5 ± 37.1 µM; in series [2] (Homo sapiens, Jurkat, 24 h), over 100 µM; in series [3] it was over 100 µM.

As for `O=C1Nc2ccccc2C1=O` [Compound 3a], the “IC50 (μM) HepG2” value in series [1] is “no anti-cancer activity”. The IC50 in series [1] is over 100 µM; in series [2] (Homo sapiens, Jurkat, 24 h), over 100 µM; in series [3] it was 16.7 ± 50 µM.

In the case of `CN1C(=O)C(=O)c2ccccc21` [Compound 3e], the IC50 in series [1] is 2.82 µM; in series [2] (Homo sapiens), 7.13 µM; in series [3] it was over 100 µM; in series [4] it was 3 to 7 µM. The “IC50 (μM) HEK293” value in series [3] is “no activity”.

For the compound `O=C1C(=O)N(Cc2ccccc2)c2ccccc21` [Compound 3f], the IC50 in series [1] is 3.13 µM; in series [2] (Homo sapiens, Jurkat, 24 h), 3.13 µM; in series [3] it was over 100 µM; in series [4], 3 to 7 µM. Besides, in series [2], the “IC50 (μM) Jurkat” value is recorded as “strong activity”. For the same compound, in series [3], the “IC50 (μM) HEK293” value is recorded as “no activity”.

For `CC(=O)N1C(=O)C(=O)c2ccccc21` [Compound 3h, N-acetylisatin], in series [1], the “IC50 (μM) HepG2” value is given as “no anti-cancer activity”. For the same compound, the IC50 in series [1] was over 100 µM; in series [2] (Homo sapiens, Jurkat, 24 h), over 100 µM; in series [3], over 100 µM.

In turn, `CCCC(CCC)C(=O)N/N=C1\C(=O)Nc2ccccc21` [Compound 4a, (Z) N′-(2-Oxoindolin-3-ylidene)-2-propylpentane Hydrazide] showed a melting point of 175 to 176 °C. Further, in series [1], the “IC50 (μM) HepG2” value is “inactive; also recorded: no anti-cancer activity” and the IC50 was over 100 µM. For the same compound, in series [2], the IC50 worked out at 3.15 µM and the “IC50 (μM) Jurkat” value is on record as “strong activity”. For the same compound, in series [2] (Homo sapiens, Jurkat, 24 h), half-maximal inhibition (IC50) required 3.14 µM. For the same compound, in series [3], the “IC50 (μM) HEK293” value was “inactive” and the IC50 is over 100 µM. The compound further had an IC50 in series [4] of 3 to 7 µM.

On to `CCCC(CCC)C(=O)N/N=C1\C(=O)Nc2ccc(Br)cc21` [Compound 4b, (Z) N′-(5-Bromo-2-oxoindolin-3-ylidene)-2-propylpentane Hydrazide], for which the melting point fell in the range of 172 to 173 °C. Also, in series [1], the “IC50 (μM) HepG2” value was “no anti-cancer activity” and the IC50 was over 100 µM. Further, in series [2] (Homo sapiens, Jurkat, 24 h), the 50% inhibitory concentration (IC50) was over 100 µM. Further, the IC50 in series [3] turned out to be 26.1 ± 31.3 µM.

For `CCCC(CCC)C(=O)N/N=C1\C(=O)Nc2ccc(Cl)cc21` [Compound 4c, (Z) N′-(5-Chloro-2-oxoindolin-3-ylidene)-2-propylpentane Hydrazide], the melting point was 154 to 156 °C. The compound also displayed a half-maximal inhibitory concentration (IC50) in series [1] of 4.39 µM. Also, in series [2], the “IC50 (μM) Jurkat” value was “strong activity”. In series [2] (Homo sapiens, Jurkat, 24 h), half-maximal inhibition (IC50) required 2.9 µM. In series [3], the midpoint of inhibition, the IC50, lay at 4.77 µM. In series [4], this compound yielded an IC50 of 3 to 7 µM.

In turn, `CCCC(CCC)C(=O)N/N=C1\C(=O)Nc2ccc(F)cc21` [Compound 4d, (Z) N′-(5-Fluoro-2-oxoindolin-3-ylidene)-2-propylpentane Hydrazide] returned a melting point of 180 to 182 °C. In series [1], this compound showed a half-inhibitory concentration (IC50) of over 100 µM. The compound also registered a concentration for half-maximal inhibition (IC50) in series [2] (Homo sapiens, Jurkat, 24 h) of over 100 µM. In series [3], this compound registered a half-maximal inhibitory concentration (IC50) of over 100 µM.

Compound `CCCC(CCC)C(=O)N/N=C1\C(=O)N(C)c2ccccc21` [Compound 4e, (Z) N′-(1-Methyl-2-oxoindolin-3-ylidene)-2-propylpentane Hydrazide] yielded a melting point of 154 to 156 °C. Moreover, the IC50 in series [1] is 7.61 µM. In addition, the IC50 in series [2] (Homo sapiens, Jurkat, 24 h) was found to be 3.19 µM. In series [3], the “IC50 (μM) HEK293” value was “no activity” and the IC50 was over 100 µM. In addition, the IC50 in series [4] was in the range of 3 to 7 µM.

Compound `CCCC(CCC)C(=O)N/N=C1\C(=O)N(Cc2ccccc2)c2ccccc21` [Compound 4f, (Z) N′-(1-Benzyl-2-oxoindolin-3-ylidene)-2-propylpentane Hydrazide] registered a melting point of 170 to 172 °C. In addition, in series [1], the “IC50 (μM) HepG2” value is given as “no anti-cancer activity” and the concentration for half-maximal inhibition (IC50) is over 100 µM. Also, in series [2] (Homo sapiens, Jurkat, 24 h), the IC50 is over 100 µM. The same compound registered an IC50 in series [3] of over 100 µM.

Turning to `CCCC(CCC)C(=O)N/N=C1\C(=O)N(CCBr)c2ccccc21` [Compound 4g, (Z)-N′-(1-(2-Bromoethyl)-2-oxoindolin-3-ylidene)-2-propylpentane Hydrazide], the melting point lay in the range of 90 to 91 °C. In series [1], the “IC50 (μM) HepG2” value was “no anti-cancer activity” and the concentration for half-maximal inhibition (IC50) was over 100 µM. In series [2] (Homo sapiens), the IC50 is over 100 µM. In series [3], this compound had a concentration for half-maximal inhibition (IC50) of 45.4 ± 48.9 µM.

In turn, `CCCC(CCC)C(=O)NNC(=O)C(=O)c1ccccc1NC(C)=O` [Compound 4h, N-(2-(2-Oxo-2-(2-(2-propylpentanoyl)hydrazinyl)acetyl)phenyl) Acetamide] displayed a melting point of 180 to 181 °C. Moreover, in series [1], the “IC50 (μM) HepG2” value is reported as “no anti-cancer activity” and the IC50 is over 100 µM. Further, the 50% inhibitory concentration (IC50) in series [2] (Homo sapiens, Jurkat, 24 h) is over 100 µM. Also, the IC50 in series [3] is over 100 µM.

For `O=c1[nH]cc(F)c(=O)[nH]1` [Compound 5-FU, 5-Fluorouracil, reference compound], the IC50 in series [1] is 32.1 ± 48.1 µM; in series [2] (Homo sapiens, Jurkat, 24 h) it was 51.2 ± 47.4 µM; in series [3], over 100 µM; in series [4], 32 to 50 µM.

A word on the IC50: it is the concentration at which inhibition is half-maximal. What is called melting point is the temperature of the solid-liquid transition.
